Series [1] in a line: Inhibition of S-nitrosoglutathione reductase expressed in Escherichia coli after 3 mins by UV/Vis spectrophotometry.
In the next series the target is CYP2C19 (Homo sapiens, UniProt P33261). Kind of series: Inhibition of CYP2C19 at 10 uM. The series is classed as ADME.
A further series addresses CYP2D6 (Homo sapiens, UniProt P10635). Briefly: Inhibition of CYP2D6 at 10 uM. The format is ADME.
The target of a further series is T1, CYP1A2 (Homo sapiens, UniProt P05177).
T1 sequence (P05177 whole entry): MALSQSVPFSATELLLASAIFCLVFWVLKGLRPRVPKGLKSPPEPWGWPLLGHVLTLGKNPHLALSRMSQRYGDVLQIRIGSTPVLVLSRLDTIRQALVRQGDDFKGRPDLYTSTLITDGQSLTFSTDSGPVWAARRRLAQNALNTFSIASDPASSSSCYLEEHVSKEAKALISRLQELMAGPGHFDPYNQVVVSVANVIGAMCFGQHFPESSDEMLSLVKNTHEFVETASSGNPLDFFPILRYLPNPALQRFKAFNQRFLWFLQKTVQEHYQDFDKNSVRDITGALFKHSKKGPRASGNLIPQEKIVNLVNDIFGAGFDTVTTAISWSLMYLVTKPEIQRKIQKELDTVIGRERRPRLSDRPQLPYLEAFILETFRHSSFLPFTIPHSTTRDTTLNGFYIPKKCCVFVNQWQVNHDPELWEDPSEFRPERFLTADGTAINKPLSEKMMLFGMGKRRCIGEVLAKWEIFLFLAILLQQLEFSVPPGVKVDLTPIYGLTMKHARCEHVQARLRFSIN
Kind of series: Inhibition of CYP1A2 at 10 uM. The format is ADME.

The target of the next series is CYP2C9 (Homo sapiens, UniProt P11712). Kind of series: Inhibition of CYP2C9 at 10 uM. The series is classed as ADME.
The next series deals with CYP3A4 (Homo sapiens, UniProt P08684). Kind of series: Inhibition of CYP3A4 at 10 uM. The series is classed as ADME.
Series [2] deals with Mu-type opioid receptor (Homo sapiens) (UniProt P35372). Briefly: Binding affinity to human recombinant mu opioid receptor at 10 uM by radioligand displacement assay. (In general: Loss of bound radioactivity is the signal in a displacement assay; it reports binding, not function.)
In the next series the target is Cytochrome P450 2C19 (Homo sapiens, UniProt P33261). Briefly: Inhibition of CYP2C19. The format is ADME.
The species named for the next series is Homo sapiens. Kind of series: Binding affinity to human recombinant delta2 opiate receptor by radioligand displacement assay.

Active and inactive are the calls of the source. The rule behind the calls is not given here.

Chain of CYP3A4 (P08684 whole entry): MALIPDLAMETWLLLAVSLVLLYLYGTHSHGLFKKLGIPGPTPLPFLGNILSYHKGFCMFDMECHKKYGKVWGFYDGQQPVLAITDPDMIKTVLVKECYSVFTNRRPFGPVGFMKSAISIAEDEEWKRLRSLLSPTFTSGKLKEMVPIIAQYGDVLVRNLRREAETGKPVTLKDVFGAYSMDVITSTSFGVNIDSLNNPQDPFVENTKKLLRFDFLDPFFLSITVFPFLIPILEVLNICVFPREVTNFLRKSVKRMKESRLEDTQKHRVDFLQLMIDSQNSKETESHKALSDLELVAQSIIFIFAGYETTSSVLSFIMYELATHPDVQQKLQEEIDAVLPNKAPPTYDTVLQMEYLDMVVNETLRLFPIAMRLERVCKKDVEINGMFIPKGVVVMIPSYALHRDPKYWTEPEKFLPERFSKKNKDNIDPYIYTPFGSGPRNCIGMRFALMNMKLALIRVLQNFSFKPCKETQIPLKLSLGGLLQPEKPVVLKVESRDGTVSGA
Chain of CYP2C9 (P11712 whole entry): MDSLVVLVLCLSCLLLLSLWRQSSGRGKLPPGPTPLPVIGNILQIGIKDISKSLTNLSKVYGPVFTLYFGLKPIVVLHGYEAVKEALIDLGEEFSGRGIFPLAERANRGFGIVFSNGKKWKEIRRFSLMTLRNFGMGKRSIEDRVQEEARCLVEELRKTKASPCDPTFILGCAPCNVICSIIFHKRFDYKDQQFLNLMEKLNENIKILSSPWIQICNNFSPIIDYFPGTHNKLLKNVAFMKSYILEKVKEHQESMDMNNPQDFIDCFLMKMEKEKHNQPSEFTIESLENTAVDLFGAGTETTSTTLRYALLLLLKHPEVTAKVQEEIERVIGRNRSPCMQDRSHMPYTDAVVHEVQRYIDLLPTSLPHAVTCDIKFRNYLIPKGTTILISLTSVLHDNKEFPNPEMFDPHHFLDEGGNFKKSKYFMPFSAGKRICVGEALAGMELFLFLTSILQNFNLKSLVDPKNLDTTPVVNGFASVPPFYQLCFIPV
Chain of CYP2C19 (P33261 whole entry): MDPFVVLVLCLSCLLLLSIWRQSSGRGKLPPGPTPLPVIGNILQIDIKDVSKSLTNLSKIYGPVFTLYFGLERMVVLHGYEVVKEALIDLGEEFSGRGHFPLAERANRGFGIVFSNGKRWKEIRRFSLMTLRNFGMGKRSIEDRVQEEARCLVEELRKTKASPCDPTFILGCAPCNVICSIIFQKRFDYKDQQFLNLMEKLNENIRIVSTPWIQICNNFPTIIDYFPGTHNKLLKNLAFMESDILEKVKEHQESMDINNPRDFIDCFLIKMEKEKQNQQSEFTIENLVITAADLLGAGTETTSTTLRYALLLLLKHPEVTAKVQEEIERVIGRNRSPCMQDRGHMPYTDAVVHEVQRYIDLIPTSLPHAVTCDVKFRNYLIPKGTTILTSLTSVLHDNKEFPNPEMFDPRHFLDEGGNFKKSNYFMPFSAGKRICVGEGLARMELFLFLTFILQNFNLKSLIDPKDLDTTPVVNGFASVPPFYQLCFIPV
Chain of CYP2D6 (P10635 whole entry): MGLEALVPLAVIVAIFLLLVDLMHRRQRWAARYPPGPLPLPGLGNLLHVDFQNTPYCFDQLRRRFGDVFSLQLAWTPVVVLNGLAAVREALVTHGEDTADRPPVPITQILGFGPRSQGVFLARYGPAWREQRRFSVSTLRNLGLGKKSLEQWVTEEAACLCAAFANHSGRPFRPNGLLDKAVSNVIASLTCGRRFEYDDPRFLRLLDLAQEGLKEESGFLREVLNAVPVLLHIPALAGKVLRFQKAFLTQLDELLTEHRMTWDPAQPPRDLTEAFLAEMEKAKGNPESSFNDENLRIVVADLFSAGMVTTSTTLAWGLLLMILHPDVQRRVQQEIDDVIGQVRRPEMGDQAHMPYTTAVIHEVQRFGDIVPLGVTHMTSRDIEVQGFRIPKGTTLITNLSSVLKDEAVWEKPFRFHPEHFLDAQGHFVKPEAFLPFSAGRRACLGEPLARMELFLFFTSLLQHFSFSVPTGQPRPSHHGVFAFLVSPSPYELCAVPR
Chain of Mu-type opioid receptor (Homo sapiens) (P35372 whole entry): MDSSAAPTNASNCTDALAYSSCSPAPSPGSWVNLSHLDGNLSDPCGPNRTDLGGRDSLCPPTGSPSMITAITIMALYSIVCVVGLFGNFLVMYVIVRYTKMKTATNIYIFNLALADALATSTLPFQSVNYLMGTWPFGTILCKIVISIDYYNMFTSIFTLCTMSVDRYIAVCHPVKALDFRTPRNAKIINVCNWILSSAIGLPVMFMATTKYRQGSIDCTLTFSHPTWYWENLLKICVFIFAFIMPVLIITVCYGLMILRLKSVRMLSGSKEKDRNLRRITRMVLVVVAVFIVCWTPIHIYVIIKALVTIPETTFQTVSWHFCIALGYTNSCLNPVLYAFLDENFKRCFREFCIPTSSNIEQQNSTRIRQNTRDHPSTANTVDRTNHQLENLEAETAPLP
Chain of Cytochrome P450 2C19 (P33261 whole entry): as the sequence (P33261 whole entry) above

In the case of `Cc1cc(C(N)=O)ccc1-n1c(CCC(=O)O)ccc1-c1ccc(N2CCNC2=O)cc1`, in [1] (read-out: IC50), the IC50 turned out to be 50.6 µM.
The same measure, in the same setting: then `Cc1cc(C(N)=O)ccc1-n1c(CCC(=O)O)ccc1-c1ccc(-n2ccnc2)cn1`, with 0.36 µM.
Regarding `CCc1nccn1-c1ccc(-c2ccc(CCC(=O)O)n2-c2ccc(C(N)=O)cc2C)cc1`, the inhibition at 10 µM on CYP2C19 stood at 25%; on CYP2D6, 20%; at CYP1A2, 6%; at CYP2C9 it was 15%; on CYP3A4, 27%. The IC50 in series [1] (read-out: IC50) worked out at 0.13 µM.
With `Cc1cc(C(N)=O)ccc1-n1c(CCC(=O)O)ccc1-c1ccc(-n2ccnc2)nc1`, the half-maximal inhibitory concentration (IC50) in series [1] (read-out: IC50) came to 2.3 µM.
Same read-out and setting: then `Cc1cc(C(N)=O)ccc1-n1c(CCC(=O)O)ccc1-c1ccc(-n2cccc2)cc1`, with 10.2 µM.
As to `Cc1cc(C(N)=O)ccc1-n1c(CCC(=O)O)ccc1-c1cc(-n2ccnc2C)cs1`, the inhibition at 10 µM is 11% against CYP2C19; 12% at CYP2D6; -11% at CYP1A2; 13% against CYP2C9; 18% at CYP3A4. For the same molecule, the inhibition in [2] was 69%.
With `Cc1cc(C(N)=O)ccc1-n1c(CCC(=O)O)ccc1-c1ccc(N2CCOCC2)cc1`, the IC50 in series [1] (read-out: IC50) was found to be 8.17 µM.
Take `Cc1cc(C(N)=O)ccc1-n1c(CCC(=O)O)ccc1-c1ccc(-n2ccnc2C(C)C)cc1`: the IC50 result in series [1] was “Not Active”.
Regarding `Cc1cc(C(N)=O)ccc1-n1c(CCC(=O)O)ccc1-c1ccc(-n2ccnc2C)s1`, the inhibition at 10 µM on CYP2C19 was 25%; against CYP2D6, 10%; on CYP1A2, -8%; at CYP2C9, 15%; against CYP3A4, 27%.
Turning to `Cc1cc(C(N)=O)ccc1-n1c(CCC(=O)O)ccc1-c1ccc(-n2cnnn2)cc1`, the IC50 in [1] (read-out: IC50) was determined as 5.19 µM.
In the case of `Cc1cc(C(N)=O)ccc1-n1c(CCC(=O)O)ccc1-c1ccc(-n2ccnc2C(F)(F)F)cc1`, the IC50 result in series [1] is recorded as “Not Active”.
`Cc1cc(C(N)=O)ccc1-n1c(CCC(=O)O)ccc1-c1ccc(N2CCCC2)cc1`: the IC50 in series [1] (read-out: IC50) stood at 11.8 µM.
In the case of `Cc1cc(C(N)=O)ccc1-n1c(CCC(=O)O)ccc1-c1ccc(-c2ccncc2)cc1`, the IC50 in series [1] (read-out: IC50) was found to be 9.8 µM.
Consider `Cc1cc(C(N)=O)ccc1-n1c(CCC(=O)O)ccc1-c1ccc(-c2ccccc2)cc1`, for which, in series [1] (read-out: IC50), the IC50 stood at 6.16 µM.
Turning to `Cc1cc(C(N)=O)ccc1-n1c(CCC(=O)O)ccc1-c1ccc(-n2ccnc2)o1`, the IC50 in [1] (read-out: IC50) turned out to be 0.9 µM.
On the same count and under the same terms, then `Cc1cc(C(N)=O)ccc1-n1c(CCC(=O)O)ccc1-c1csc(-n2ccnc2C)c1`, with 0.048 µM.
On the same count and under the same terms, then `Cc1cc(C(N)=O)ccc1-n1c(CCC(=O)O)ccc1-c1ccc(N2CCOC2=O)cc1`, with 53.5 µM; and `Cc1cc(C(N)=O)ccc1-n1c(CCC(=O)O)ccc1-c1ccc(-n2cccn2)cc1`, with 4.74 µM.
On the same count and under the same terms, then `Cc1cc(C(N)=O)ccc1-n1c(CCC(=O)O)ccc1-c1cnc(-n2ccnc2)nc1`, with 0.15 µM.
Take `Cc1cn(-c2ccc(-c3ccc(CCC(=O)O)n3-c3ccc(C(N)=O)cc3C)cc2)cn1`: the IC50 in series [1] (read-out: IC50) worked out at 6.25 µM.
Same read-out and setting: then `Cc1cc(C(N)=O)ccc1-n1c(CCC(=O)O)ccc1-c1ccc(-c2ccoc2)cc1`, with 0.51 µM; and `Cc1cc(C(N)=O)ccc1-n1c(CCC(=O)O)ccc1-c1ccc(N2CCNCC2)cc1`, with 43.9 µM; and `Cc1cc(C(N)=O)ccc1-n1c(CCC(=O)O)ccc1-c1ccc(-c2cn[nH]c2)cc1`, with 2.66 µM.
Regarding `Cc1cc(C(N)=O)ccc1-n1c(CCC(=O)O)ccc1-c1ccc(-n2ccnn2)cc1`, the IC50 in [1] (read-out: IC50) turned out to be 13.3 µM.
`Cc1cc(C(N)=O)ccc1-n1c(CCC(=O)O)ccc1-c1ccc(-c2ccsc2)cc1`: in series [1] (read-out: IC50), the IC50 came to 29.3 µM.
As to `Cc1cc(C(N)=O)ccc1-n1c(CCC(=O)O)ccc1-c1ccc(-n2ccnc2)s1`, the inhibition at 10 µM against CYP2C19 was 83%; against CYP2D6, 96%; at CYP1A2 it was 77%; on CYP2C9 it was 92%; at CYP3A4, 91%.
Take `Cc1cc(C(N)=O)ccc1-n1c(CCC(=O)O)ccc1-c1ccc(-c2cccnc2)cc1`: the IC50 in series [1] (read-out: IC50) was 23.9 µM.
On the same count and under the same terms, then `Cc1cc(C(N)=O)ccc1-n1c(CCC(=O)O)ccc1-c1ccc(-c2ccco2)cc1`, with 6.52 µM; and `Cc1cc(C(N)=O)ccc1-n1c(CCC(=O)O)ccc1-c1ccc(-n2ccnc2C2CC2)cc1`, with 6.96 µM.
The same measure, in the same setting: then `Cc1cc(C(N)=O)ccc1-n1c(CCC(=O)O)ccc1-c1ccc(-c2nnn[nH]2)cc1`, with 1.75 µM.
For `Cc1cc(C(N)=O)ccc1-n1c(CCC(=O)O)ccc1-c1ccc(-c2ccnn2C)cc1`, the IC50 in series [1] (read-out: IC50) was determined as 0.68 µM.
Turning to `Cc1cc(C(N)=O)ccc1-n1c(CCC(=O)O)ccc1-c1ccc(-n2ccnc2C)cc1`, the inhibition at 10 µM at CYP2C19 was found to be 55%; on CYP2D6 it was 11%; against CYP1A2 it was 11%; against CYP2C9 it was 20%; against CYP3A4, 31%. For the same molecule, in series [1] (read-out: IC50), the concentration for half-maximal inhibition (IC50) stood at 0.075 µM.
In the case of `Cc1cc(C(N)=O)ccc1-n1c(CCC(=O)O)ccc1-c1cc(-n2ccnc2)cs1`, the IC50 in [1] (read-out: IC50) amounted to 0.026 µM.
Same read-out and setting: then `Cc1cc(C(N)=O)ccc1-n1c(CCC(=O)O)ccc1-c1ccc(N2CCCCC2)cc1`, with 8.78 µM; and `Cc1cc(C(N)=O)ccc1-n1c(CCC(=O)O)ccc1-c1ccc(-n2ccnc2CO)cc1`, with 2.31 µM; and `CCc1nccn1-c1ccc(-c2ccc(CCC(=O)O)n2-c2ccc(C(N)=O)cc2C)s1`, with 0.048 µM.
Same read-out and setting: then `Cc1cc(C(N)=O)ccc1-n1c(CCC(=O)O)ccc1-c1cnc(-n2ccnc2)s1`, with 1.57 µM; and `Cc1cc(C(N)=O)ccc1-n1c(CCC(=O)O)ccc1-c1ccc(-c2cnn(C)c2)cc1`, with 5.14 µM.
Turning to `Cc1cc(C(N)=O)ccc1-n1c(CCC(=O)O)ccc1-c1ccc(-n2cnnc2)cc1`, the IC50 in [1] (read-out: IC50) amounted to 1.48 µM.
Still for that read-out and setting: then `Cc1cc(C(N)=O)ccc1-n1c(CCC(=O)O)ccc1-c1ccc(-c2cncs2)cc1`, with 0.76 µM.
The same measure, in the same setting: then `Cc1cc(C(N)=O)ccc1-n1c(CCC(=O)O)ccc1-c1ccc(-c2ccc(=O)[nH]c2)cc1`, with 19 µM.
`Cc1cc(C(N)=O)ccc1-n1c(CCC(=O)O)ccc1-c1ccc(-n2ccnc2)cc1` [N6022]: the IC50 stood at 0.77 µM at Cytochrome P450 2C19 and 0.02 µM in series [1] (read-out: IC50). Further, the outcome in the series listed under Homo sapiens was inactive.

In general, IC50 refers to the point on the concentration scale where inhibition reaches its midpoint. Usually inhibition stands for the drop in the measured response relative to a control, in per cent.

Values taken from ChEMBL document CHEMBL1833839, “Discovery of potent and novel S-nitrosoglutathione reductase inhibitors devoid of cytochrome P450 activities” (Bioorg Med Chem Lett, 2011).
